Data from ChEMBL document CHEMBL3044927, “Novel 4(3H)-quinazolinone analogs: synthesis and anticonvulsant activity” (Med Chem Res, 2013).
The source made the active and inactive calls. The rule behind the calls is not given here.

Assays:
Mus musculus [1] = experiment: Anticonvulsant activity in Swiss albino Mus musculus (mouse) assessed as protection against PTZ-induced seizure at 1.5 mmol/kg, ip administered 30 min prior to PTZ-challenge measured up to 30 min relative to control; assay type: functional
[2] = Therapeutic index, ratio of LD50 to ED50 in Swiss albino Mus musculus (mouse); assay type: organism-based; details: in vivo, read-out: Ratio LD50/ED50
Mus musculus [3] = experiment: Anticonvulsant activity in Swiss albino Mus musculus (mouse) assessed as protection against picrotoxin-induced seizure at 0.75 mmol/kg, i.p. administered 30 min prior to picrotoxin-challenge measured up to 30 min relative to control; assay type: functional
Mus musculus [4] = experiment: Neurotoxicity against Swiss albino Mus musculus (mouse) at 0.18 mmol/kg, ip measured after 15 to 25 min by chimney test; assay type: toxicity, organism-based; details: in vivo
Mus musculus [5] = organism: Mus musculus; experiment: Ratio of sodium valporate ED50 to compound ED50 in Swiss albino Mus musculus (mouse) PTZ-seizure model; assay type: functional
Mus musculus [6] = experiment: Neurotoxicity against Swiss albino Mus musculus (mouse) at 1.5 mmol/kg, ip measured after 15 to 25 min by chimney test; assay type: toxicity, organism-based; details: in vivo
Mus musculus [7] = experiment: Neurotoxicity against Swiss albino Mus musculus (mouse) at 0.37 mmol/kg, ip measured after 15 to 25 min by chimney test; assay type: toxicity, organism-based; details: in vivo
Mus musculus [8] = experiment: Anticonvulsant activity in ip dosed Swiss albino Mus musculus (mouse) assessed as protection against PTZ-induced seizure administered 30 min prior to PTZ-challenge measured up to 30 min; assay type: functional
[9] = Toxicity against i.p. dosed Swiss albino Mus musculus (mouse) by Sperman-Karber method; assay type: organism-based; details: in vivo, ip
Mus musculus [10] = experiment: Anticonvulsant activity in Swiss albino Mus musculus (mouse) assessed as protection against maximal electric shock-induced seizure at 0.75 mmol/kg, i.p. administered 30 min prior to maximal electric shock-challenge measured up to 30 min relative to control; assay type: functional
Mus musculus [11] = experiment: Anticonvulsant activity in Swiss albino Mus musculus (mouse) assessed as protection against picrotoxin-induced seizure at 0.18 mmol/kg, i.p. administered 30 min prior to picrotoxin-challenge measured up to 30 min relative to control; assay type: functional
Mus musculus [12] = experiment: Anticonvulsant activity in Swiss albino Mus musculus (mouse) assessed as protection against PTZ-induced seizure at 0.37 mmol/kg, ip administered 30 min prior to PTZ-challenge measured up to 30 min relative to control; assay type: functional
Mus musculus [13] = experiment: Anticonvulsant activity in Swiss albino Mus musculus (mouse) assessed as protection against bicuculline-induced seizure at 0.18 mmol/kg, i.p. administered 30 min prior to bicuculline-challenge measured up to 30 min relative to control; assay type: functional
Mus musculus [14] = experiment: Anticonvulsant activity in Swiss albino Mus musculus (mouse) assessed as protection against bicuculline-induced seizure at 0.75 mmol/kg, i.p. administered 30 min prior to bicuculline-challenge measured up to 30 min relative to control; assay type: functional
Mus musculus [15] = experiment: Anticonvulsant activity in Swiss albino Mus musculus (mouse) assessed as protection against PTZ-induced seizure at 0.18 mmol/kg, ip administered 30 min prior to PTZ-challenge measured up to 30 min relative to control; assay type: functional
Mus musculus [16] = experiment: Anticonvulsant activity in Swiss albino Mus musculus (mouse) assessed as protection against picrotoxin-induced seizure at 0.37 mmol/kg, i.p. administered 30 min prior to picrotoxin-challenge measured up to 30 min relative to control; assay type: functional
Mus musculus [17] = experiment: Anticonvulsant activity in Swiss albino Mus musculus (mouse) assessed as protection against bicuculline-induced seizure at 0.37 mmol/kg, i.p. administered 30 min prior to bicuculline-challenge measured up to 30 min relative to control; assay type: functional
Mus musculus [18] = organism: Mus musculus; experiment: Protective index, ratio of TD50 for to ED50 in Swiss albino Mus musculus (mouse)
[19] = Neurotoxicity against ip dosed Swiss albino Mus musculus (mouse) measured after 15 to 25 min by chimney test; assay type: toxicity, organism-based; details: in vivo
Mus musculus [20] = experiment: Anticonvulsant activity in Swiss albino Mus musculus (mouse) assessed as protection against PTZ-induced seizure at 0.75 mmol/kg, ip administered 30 min prior to PTZ-challenge measured up to 30 min relative to control; assay type: functional
Mus musculus [21] = experiment: Anticonvulsant activity in Swiss albino Mus musculus (mouse) assessed as protection against maximal electric shock-induced seizure at 0.37 mmol/kg, i.p. administered 30 min prior to maximal electric shock-challenge measured up to 30 min relative to control; assay type: functional
Mus musculus [22] = experiment: Anticonvulsant activity in Swiss albino Mus musculus (mouse) assessed as protection against maximal electric shock-induced seizure at 1.5 mmol/kg, ip administered 30 min prior to maximal electric shock-challenge measured up to 30 min relative to control; assay type: functional
Mus musculus [23] = experiment: Anticonvulsant activity in Swiss albino Mus musculus (mouse) assessed as protection against bicuculline-induced seizure at 1.5 mmol/kg, ip administered 30 min prior to bicuculline-challenge measured up to 30 min relative to control; assay type: functional
Mus musculus [24] = experiment: Anticonvulsant activity in Swiss albino Mus musculus (mouse) assessed as protection against maximal electric shock-induced seizure at 0.18 mmol/kg, i.p. administered 30 min prior to maximal electric shock-challenge measured up to 30 min relative to control; assay type: functional
Mus musculus [25] = experiment: Neurotoxicity against Swiss albino Mus musculus (mouse) at 0.75 mmol/kg, ip measured after 15 to 25 min by chimney test; assay type: toxicity, organism-based; details: in vivo
Mus musculus [26] = experiment: Anticonvulsant activity in Swiss albino Mus musculus (mouse) assessed as protection against picrotoxin-induced seizure at 1.5 mmol/kg, ip administered 30 min prior to picrotoxin-challenge measured up to 30 min relative to control; assay type: functional

O=c1[nH]c(-c2cccs2)nc2ccc(I)cc12
Activity (Mus musculus [1]): inactive

O=C1c2ccccc2C(=O)N1n1c(-c2cccs2)nc2ccc(I)cc2c1=O
selectivity ratio [2]: 5.5
Activity (Mus musculus [3]): 50%
Activity (Mus musculus [4]): 0%
Ratio ED50 (Mus musculus [5]): 2
Activity (Mus musculus [6]): 80%
Activity (Mus musculus [7]): 30%
ED50 (Mus musculus [8]): 251 mg/kg
LD50 [9]: 1380 mg/kg
Activity (Mus musculus [10]): 0%
Activity (Mus musculus [11]): 20%
Activity (Mus musculus [12]): 30%
Activity (Mus musculus [13]): 0%
Activity (Mus musculus [14]): 40%
Activity (Mus musculus [15]): 0%
Activity (Mus musculus [16]): 50%
Activity (Mus musculus [17]): 10%
Ratio TD50/ED50 (Mus musculus [18]): 1.78
TD50 [19]: 447 mg/kg
Activity (Mus musculus [20]): 70%
Activity (Mus musculus [21]): 0%
Activity (Mus musculus [22]): 30%
Activity (Mus musculus [23]): 100%
Activity (Mus musculus [24]): 0%
Activity (Mus musculus [1]): 100%
Activity (Mus musculus [25]): 30%

CCOC(=O)CSc1nc2ccc(C)cc2c(=O)n1-c1ccccc1
Activity (Mus musculus [1]): inactive

O=C1c2c(Cl)c(Cl)c(Cl)c(Cl)c2C(=O)N1n1c(-c2cccs2)nc2ccc(I)cc2c1=O
Activity (Mus musculus [1]): inactive

CCOC(=O)CSc1nc2ccc(C)cc2c(=O)n1Cc1ccccc1
Activity (Mus musculus [1]): inactive

Cc1ccc2nc(S)n(-c3ccccc3)c(=O)c2c1
Activity (Mus musculus [26]): 80%
Activity (Mus musculus [22]): 0%
Activity (Mus musculus [23]): 100%
Activity (Mus musculus [1]): 70%

O=C1c2cccc3cccc(c23)C(=O)N1n1c(-c2cccs2)nc2ccc(I)cc2c1=O
Activity (Mus musculus [1]): inactive

NNC(=O)COc1nc(-c2cccs2)nc2ccc(I)cc12
Activity (Mus musculus [1]): 30%

NNc1nc2ccc([N+](=O)[O-])cc2c(=O)n1-c1ccccc1
Activity (Mus musculus [1]): 30%

O=c1oc(-c2cccs2)nc2ccc(I)cc12
Activity (Mus musculus [1]): inactive

O=C(COc1nc(-c2cccs2)nc2ccc(I)cc12)NN1C(=O)c2c(Br)c(Br)c(Br)c(Br)c2C1=O
Activity (Mus musculus [1]): 30%

Cn1c(-c2cccs2)nc2ccc(I)cc2c1=O
Activity (Mus musculus [22]): 0%
Activity (Mus musculus [23]): 100%
Activity (Mus musculus [1]): 100%

O=C1c2c(Br)c(Br)c(Br)c(Br)c2C(=O)N1n1c(-c2cccs2)nc2ccc(I)cc2c1=O
Activity (Mus musculus [1]): 30%

CCOC(=O)CSc1nc2ccc([N+](=O)[O-])cc2c(=O)n1Cc1ccccc1
Activity (Mus musculus [1]): inactive

Cc1ccc2nc(SCC(=O)NN3C(=O)CCC3=O)n(Cc3ccccc3)c(=O)c2c1
Activity (Mus musculus [1]): 30%

O=C(COc1nc(-c2cccs2)nc2ccc(I)cc12)NN1C(=O)c2c(Cl)c(Cl)c(Cl)c(Cl)c2C1=O
Activity (Mus musculus [1]): 30%

O=C(COc1nc(-c2cccs2)nc2ccc(I)cc12)NN1C(=O)c2cccc3cccc(c23)C1=O
Activity (Mus musculus [1]): inactive

Cc1ccc2nc(SCC(=O)NN3C(=O)c4cccc5cccc(c45)C3=O)n(Cc3ccccc3)c(=O)c2c1
Activity (Mus musculus [26]): 80%
Activity (Mus musculus [22]): 30%
Activity (Mus musculus [23]): 100%
Activity (Mus musculus [1]): 70%

O=c1c2cc([N+](=O)[O-])ccc2nc(S)n1Cc1ccccc1
Activity (Mus musculus [1]): inactive
